Test results taken from ChEMBL document CHEMBL3826917, “Anti-inflammatory properties of pterocarpanquinone LQB-118 in mice” (Bioorg Med Chem, 2016).
The source made the active and inactive calls. The rule behind the calls is not given here.

Legend:
Mus musculus [1] = experiment: Antiinflammatory activity in LPS-induced C57BL/6 mouse model of lung inflammation assessed as reduction in keratinocyte-derived chemokine release in bronchoalveolar lavage fluid at 10 mg/kg, ip administered 1 hr prior to LPS-challenge measured after 3 hrs by ELISA; type: functional, organism-based
Mus musculus [2] = experiment: Antiinflammatory activity in LPS-induced C57BL/6 mouse model of lung inflammation assessed as reduction in TNF-alpha release in bronchoalveolar lavage fluid at 10 mg/kg, ip administered 1 hr prior to LPS-challenge measured after 3 hrs by ELISA; type: functional, organism-based
Mus musculus [3] = experiment: Antiinflammatory activity in LPS-induced C57BL/6 mouse model of lung inflammation assessed as reduction in NF-kappaB activation at 10 mg/kg, ip administered 1 hr prior to LPS-challenge measured after 3 hrs by electrophoretic mobility shift assay; type: functional, organism-based
PBMC = experiment: Inhibition of LPS-induced TNF-alpha production in human PBMC at 1 to 100 uM administered prior to LPS-challenge measured after 2 hrs by ELISA; type: functional, cell-based
Mus musculus [4] = experiment: (§1) Antiinflammatory activity in LPS-induced C57BL/6 mouse model of lung inflammation assessed as decrease in neutrophil infiltration in bronchoalveolar lavage fluid at 1 to 10 mg/kg, ip administered 1 hr prior to LPS-challenge measured after 3 hrs by Diff-Quik staining-based coulter particle counter method; type: functional, organism-based
Mus musculus [5] = experiment: Toxicity in LPS-induced C57BL/6 mouse model of lung inflammation assessed as change in liver weight at 1 to 100 mg/kg, ip administered 1 hr prior to LPS-challenge measured after 3 hrs relative to control; type: organism-based; conditions: in vivo
Mus musculus [6] = experiment: as §1, with “100” for “1 to 10”, “method relative to vehicle-treated control” for “method”; type: functional; conditions: C57BL/6, ip
Mus musculus [7] = experiment: Toxicity in LPS-induced C57BL/6 mouse model of lung inflammation assessed as change in spleen weight at 1 to 100 mg/kg, ip administered 1 hr prior to LPS-challenge measured after 3 hrs relative to control; type: organism-based; conditions: in vivo
Mus musculus [8] = experiment: Antiinflammatory activity in LPS-induced C57BL/6 mouse model of lung inflammation assessed as decrease in neutrophil infiltration in bronchoalveolar lavage fluid at 10 mg/kg, ip administered 1 hr prior to LPS-challenge measured after 3 hrs by Diff-Quik staining-based coulter particle counter method; type: functional, organism-based
Mus musculus [9] = experiment: Toxicity in LPS-induced C57BL/6 mouse model of lung inflammation assessed as change in spleen weight at 10 mg/kg, ip administered 1 hr prior to LPS-challenge measured after 3 hrs relative to control; type: organism-based; conditions: in vivo
Mus musculus [10] = experiment: Toxicity in LPS-induced C57BL/6 mouse model of lung inflammation assessed as change in liver weight at 10 mg/kg, ip administered 1 hr prior to LPS-challenge measured after 3 hrs relative to control; type: organism-based; conditions: in vivo

Compound	Activity (Mus musculus [1])	Activity (Mus musculus [2])	Activity (Mus musculus [3])	inhibition (PBMC)	Activity (Mus musculus [4])	Activity (Mus musculus [5])	inhibition in vivo at 100 mg/kg (Mus musculus [6]) [%]	Activity (Mus musculus [7])	Activity (Mus musculus [8])	Activity (Mus musculus [9])	Activity (Mus musculus [10])
CC(=O)Oc1ccccc1C(=O)O	Active	Active	Active								
CC(C)=CCC1=C(O)C(=O)c2ccccc2C1=O				inactive							
O=C1C2=C(C(=O)c3ccccc31)C1Oc3ccccc3C1CO2 (racemic)	inactive	Active	Active		Active	Non-toxic	90	Non-toxic			
C[C@@H]1C[C@H]2[C@@H]3CCC4=CC(=O)C=C[C@]4(C)[C@@]3(F)[C@@H](O)C[C@]2(C)[C@@]1(O)C(=O)CO [DEXAMETHASONE]	Active	Active							Active	Toxic	Toxic
